This note sets out measurements from PubChem BioAssay (NCI).

Where “and” joins values, the source holds several entries; their conditions need not be identical. Equal entries are not always repeated.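 Briefly, cells in 96-well plates were exposed to five compound concentrations for 48 h, and endpoints were estimated by linear interpolation. Abbreviation: GI50, concentration required for 50% inhibition of growth. TGI marks complete inhibition of growth.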 Where only a bound is given, the exact number is not on record here.

Common to all, as to test: growth of human tumour cells (NCI), 48 h
For assay [1], the system named is SF-539 CNS.
Assay [2] relates to IGROV1 ovarian.
For assay [3], the system named is SW-620 colon.
The subject of assay [4] is SNB-19 CNS.
The subject of assay [5] is HCT-15 colon.
Assay [6] deals with UACC-257 melanoma.
Assay [7] relates to MCF7 breast.
Assay [8] concerns NCI-H522 lung.
Assay [9] concerns A498 renal.
Assay [10] deals with MDA-MB-435.

With `CCC1=C(c2ccc(OC)cc2)C(C)(C)Oc2c1ccc(O)c2CN1CCCC1`, the GI50 in [1] was 3.05 µM; in assay [2], 3.84 µM; in [3], 1.71 µM; in assay [4] it was 6.69 µM; in assay [5] it was 1.91 µM; in assay [6], 1.78 µM. Further, the GI50 in [7] is 1.57 µM; in [8], 1.97 µM; in assay [9], 1.23 µM; in assay [10] it was 1.71 µM. The TGI in assay [1] is 17.2 µM; in assay [2], 23.9 µM; in assay [3], 3.3 µM; in [4] it was 56.9 µM; in assay [5], 4.44 µM; in assay [6], 3.85 µM. The TGI in [7] stood at 3.2 µM; in [8], 3.96 µM; in [9] it was 7.95 µM; in assay [10], 4.03 µM.
In the case of `COc1cc2nc(Nc3cccc(Cl)c3)nc(N)c2cc1OC`, the GI50 in assay [1] is 10.2 µM; in [2], 11 µM; in assay [3], 2.68 µM; in assay [4] it was 14.6 µM; in assay [5] it was 2.62 µM; in [6] it was 2.11 µM. In addition, the GI50 in assay [7] was 4.32 µM; in [8] it was 8.44 µM; in [9], 6.57 µM; in assay [10], 2.81 µM. For the same compound, the TGI in assay [1] amounted to 22.8 µM; in assay [2] it was 25.4 µM; in [3] it was 7.15 µM; in [4] it was 28 µM; in [5] it was 10.4 µM; in assay [6], 4.48 µM. Besides, the TGI is 17.4 µM in assay [7], 26.7 µM in assay [8], 20.1 µM in assay [9] and 9.71 µM in [10].
Regarding `COc1cc(-n2ccnc2-c2ccc3ccccc3c2)cc(OC)c1OC`, the GI50 is 0.099 µM in [1]; 0.259 µM in assay [2]; 0.0443 µM in assay [3]; 0.131 µM in assay [4]; 0.0509 µM in assay [5]; 20 µM in assay [6]. In addition, the results for the GI50 in [7], in assay [8] and in assay [9] were under 0.0199 µM, under 0.0175 µM and 0.0451 µM, respectively. The TGI in assay [1] was 2.06 µM; in assay [2], over 51.2 µM; in [3] it was over 63 µM; in [4] it was over 36.7 µM; in assay [5], over 48.6 µM; in [6] it was over 100 µM. In addition, the TGI in assay [7] was over 45.8 µM; in [8], 13.2 µM; in assay [9], 1.42 µM; in assay [10], 0.124 µM.
Consider `Cc1c(CN2CCN(C(=O)[C@H](C)O)CC2)sc2c(N3CCOCC3)nc(-c3cnc(N)nc3)nc12`, for which the GI50 in assay [1] was 0.388 µM and 0.222 µM; in [2], 0.0161 µM and 0.0511 µM; in assay [3] it was 0.473 µM and 0.285 µM; in assay [4], 0.898 µM and 0.313 µM; in [5], 0.258 µM and 0.248 µM; in [6] it was 0.31 µM and 0.132 µM. The GI50 was 0.0428 µM and 0.0379 µM in [7]; 0.22 µM and 0.156 µM in assay [8]; 0.0542 µM and 0.0283 µM in assay [9]; 0.285 µM and 0.186 µM in assay [10]. Besides, the TGI in assay [1] is 2.27 µM and 0.875 µM; in assay [2] it was 0.265 µM and 0.377 µM; in assay [3], over 100 µM; in assay [4], > 10 µM and 6.16 µM; in [5], over 100 µM; in assay [6], 3.76 µM and 0.751 µM. The TGI was over 100 µM in assay [7]; over 10 µM in [8]; 0.242 µM and 0.15 µM in [9]; 3.16 µM and 1.38 µM in [10].
In the case of `CN1C(=O)CCC(N2C(=O)c3cccc(NCCOCCOCCNC(=O)c4cc5c(o4)C(=O)c4ccccc4C5=O)c3C2=O)C1=O` (centres undefined), the GI50 in assay [1] is 1.63 µM; in assay [2], 1.8 µM; in assay [3] it was 2.6 µM; in assay [4], 1.58 µM; in [5], 1.77 µM; in [6], 1.59 µM. The GI50 in [7] is 1.46 µM; in [8], 1.96 µM; in assay [9], 1.71 µM; in [10] it was 1.05 µM. Further, the TGI in assay [1] amounted to 3.02 µM; in assay [2] it was 4.31 µM; in assay [3], 7.93 µM; in [4], 5.57 µM; in [5], 3.83 µM; in assay [6], 3.11 µM. Further, the TGI worked out at 3.54 µM in [7], 5.08 µM in assay [8], 3.2 µM in assay [9] and 2.28 µM in assay [10].
For `CC(=O)O.CN1[CH-]N(Cc2ccc(C#N)cc2)c2ccccc21.[Ag+]`, the GI50 in assay [1] is 43.7 µM; in assay [2], 20.9 µM; in [3] it was 15.3 µM; in assay [4], 29.3 µM; in assay [5] it was 18 µM; in assay [6] it was 14.8 µM. Further, the GI50 in assay [7] was 17.8 µM; in assay [8], 14.5 µM; in [9] it was over 100 µM; in [10] it was 16.9 µM. Further, the TGI is over 100 µM in assay [1]; 46.7 µM in assay [2]; 31 µM in [3]; over 100 µM in [4]; 38 µM in assay [5]; 29.7 µM in [6]. Besides, the TGI in assay [7] was 51.7 µM; in assay [8], 82.4 µM; in [9], over 100 µM; in [10] it was 32 µM.
In the case of `O=C1c2c(c(=O)[nH]c3ccccc23)[C@H](c2ccccc2)[C@@H]2CCCN12`, the GI50 in [1] is 2.6 µM; in [2] it was 3.59 µM; in assay [3] it was 3.38 µM; in assay [4] it was 3.93 µM; in [5], 3.37 µM; in [6] it was 5.13 µM. The GI50 is 2.57 µM in assay [7], 8.56 µM in assay [8], 1.93 µM in [9] and 3.7 µM in [10]. Besides, the TGI in [1] was 6.7 µM; in assay [2], 15.6 µM; in assay [3] it was over 100 µM; in [4], over 100 µM; in [5] it was over 100 µM; in assay [6], 53 µM. Further, the TGI is 9.38 µM in [7], over 100 µM in assay [8], 9.09 µM in assay [9] and 15.2 µM in assay [10].
